US12187758B2 (ROME Therapeutics, Inc., priority 2022, dated 2025)
pEC50, pIC50: −log10 of the molar value. Where two headings read alike, the source gives them in different places.

What was measured:
Format in all cases: cell-based
PC3 cells = test: Mitochondria toxicity assay with PC3 cells, cytotoxicity (Cell Titer Glo); conditions: Homo sapiens, PC-3, 120 h, 5 days treatment
In short: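 Cytotoxicity reported in μM bins, A <1.0 through E >100.0. Measured via Cell Titer Glo luminescence (30 min, room temperature) after 5-day dose-titration treatment of PC3 cells, grown in F-12K/10% FBS, at 37° C, 5% CO2.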

[1] = Mitochondria toxicity assay with PC3 cells, in-cell ELISA COX-1; conditions: 5 days treatment
In short: (§1)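 This in-cell ELISA was run on fixed, permeabilized PC3 cells after 5-day exposure to titrated compound, with cytotoxicity measured on a duplicate plate. Results are reported as categories A (<1.0 μM) to E (>100.0 μM).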

THP1-Dual KO-TREX1 cells [2] = test: THP1 TREX1 KO inhibition assay (type 1 interferon response); conditions: Homo sapiens, 144 h, type 1 interferon (QUANTI-LUC), 1 μM 5-aza-2′-deoxycytidine, six days
In short: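 THP1-Dual KO-TREX1 cells were treated with a dose titration of compound, alone or with 1 μM 5-aza-2′-deoxycytidine, for six days at 37 °C. Type 1 interferon was read as secreted luciferase (QUANTI-LUC) in the supernatant, and viability by CellTiter-Glo luminescence.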

human PBMC = test: Decitabine-stimulated human PBMC assay; conditions: PBMCs, anti-CD3/anti-CD28, decitabine 10 μM, 5 days; FIGS. 3A and 3B
Experimental: EasySep buffer (32 mL, […] Technologies, cat. #20144) was used to dilute 8 mL of LRSC buffy coat (from fresh Leukopak) with gentle mixing. The diluted buffy coat (20 mL) was transferred into each of two SepMate 50 tubes, and the tubes were filled with 15 mL of Lyphoprep ([…], cat. #07851) density gradient. The SepMate tubes were then centrifuged at 1200 G for 10 minutes at room temperature with the brake on. The top layer of supernatant was collected in SepMate tubes by quickly pouring it into a new 50 mL conical tube. The PBMCs were washed with EasySep buffer×2 by centrifuging at 300 G for 5 minutes. The cells were resuspended in 30 mL of EasySep and centrifuged at 100 G for 5 minutes with the brake off, and the platelets were removed. The cells were then resuspended in 6 mL of 1×RBC lysis buffer (Invitrogen) and incubated at 37° C. for 5 minutes. 25 mL of EasySep buffer was then mixed into the tube and centrifuged at 300 G for 5 minutes. The cells were resuspended in 10 mL of EasySep buffer and the cells were then counted with Cellometer (AO/PI). The PBMCs were resuspended in RPMI1640 (ThermoFisher)+ 10% FBS (HyClone)+μ/s at 3×10^6/mL. The PBMCs (100 μL, 300 k PBMCs) were then seeded in a 96-well flat bottom microplate (Corning) that had been precoated with 100 μL of anti-CD3 antibody (10 μg/mL in PBS, Biolegend) or PBS at 4° C., one day before the assay was commenced.
To each well the following solutions were added 1) 100 μL of cells (final cell number per well is 3×10^5 cell/well); 2) 25 μL of anti-CD28 antibody at 6× (5 μg/mL final concentration, Biolegend); 3) 25 μL of decitabine at 6× (10 μM final concentration); and 4) Compound in DMSO was dispensed directly into each well with a d300e digital dispenser (Tecan). The final concentration of DMSO for each well was normalized to 0.3%. The plate was incubated at 37° C. without any agitation for 5 days. Samples were collected 120 hours after incubation to determine IFN-β […] levels using a U-PLEX Human IFN-β Assay Sector (5PL) (MSD, cat. #K151VIK-2).
After 5 days, the plate was spun down at 100×G for 5 minutes. Supernatants (100 μL) were collected for interferon R (IFN-0) analysis using the MSD assay noted above, and any residual supernatant was stored at −80° C.

[3] = system: SDH-A (succinate dehydrogenase-A); test: Mitochondria toxicity assay with PC3 cells, in-cell ELISA SDH-A; conditions: 5 days treatment
In short: as §1

THP1-Dual KO-TREX1 cells [4] = test: THP1 TREX1 KO inhibition assay, combination dosing; conditions: Homo sapiens, THP1-Dual, read-out: EC50 of Stampidine
Experimental: Exemplary compounds were tested to determine the effect of combined dosing of two compounds on the type 1 interferon response in THP1 Dual TREX1 KO cells treated with 5-aza-2′-deoxycytidine. Assay procedures and results are described below.
THP1 Dual TREX1 KO cells were purchased from InvivoGen. The THP1-Dual™ KO-TREX1 cells were cultured in RPMI 1640, 10% heat-inactivated fetal bovine serum, 25 mM HEPES, 10 μg/mL blasticidin, and 100 μg/mL Zeocin. THP1-Dual™ KO-TREX1 cells were treated with a dose titration of test compound in the presence of 1 μM 5-aza-2′-deoxycytidine (Sigma, cat #189825). Type 1 Interferon and cell viability were assessed after five days of treatment.
Stock solution of test compounds stampidine and Compound 2 were prepared in DMSO followed by a three-fold dilution in DMSO. The plate was prepared with a matrix of test compound concentrations, with stampidine on the y-axis (final concentrations 3 μM to 0.0003 μM) and Compound 2 on the x-axis (final concentrations 0.3 μM to 0.00003 μM). Additional 50× dilution was prepared in cell culture media for each dilution. 10 μL of diluted test compound was then added to a 384-well plate.
THP1-Dual™ KO-TREX1 cells were treated with 1 μM 5-aza-2′-deoxycytidine. THP1-Dual™ KO-TREX1 cells (50 μL) were added to each well of the 384-well plate containing test compound titration at 10,000 cells/well. Cells were incubated at 37° C., 5% CO2 in a humidified incubator for five days. On day five, 20 μL of cell supernatant was transferred to a 384-well, white-walled plate, followed by addition to each well of 50 μL of QUANTI-LUC solution containing stabilizer. Luminescence was detected on a plate reader according to manufacturer's instructions. Percent inhibition of interferon was calculated using the following analysis: (Average DMSO-Sample)/(Average DMSO-Average 30 μM stampidine)*100.
The remaining cells were assessed for cell viability by adding 30 μl of CellTiter-Glo (Promega, G9683) solution to each well, and placed on a shaker for 10 minutes at room temperature. Luminescence was detected on a plate reader, according to manufacturer's instructions. Percent inhibition of cell viability using CellTiter-Glo was calculated using the following analysis: (Average DMSO−Sample)/(Average DMSO−Average 20 μM viability control reagent)*100.
Combination analysis was performed using the Bivariate Response to Additive Interacting Doses (BRAID) according to Twarog, N. R., et al. Scientific Reports 6:25523 (DOI: 10.1038/srep25523). The best BRAID fit was determined to be k 2.00 (0.583-3.64), where k>0 denotes synergy, k=0 denotes additivity, and k<0 denotes antagonism. Potentiation modeling curves are provided for potentiation of Compound 2 at four concentrations of stampidine (FIG. 7A) and for potentiation of stampidine at four concentrations of Compound 2 (FIG. 7B).

SMILES	pIC50 (PC3 cells)	pIC50 [1]	pIC50 (THP1-Dual KO-TREX1 cells [2])	IFN-β production (human PBMC)	pIC50 [3]	pEC50 (THP1-Dual KO-TREX1 cells [4]; Compound 2 0 μM)	pEC50 (THP1-Dual KO-TREX1 cells [4]; Compound 2 0.0001 μM)	pEC50 (THP1-Dual KO-TREX1 cells [4]; Compound 2 0.001 μM)	pEC50 (THP1-Dual KO-TREX1 cells [4]; Compound 2 0.01 μM)
C#C[C@]1(CO)O[C@@H](n2cnc3c(N)nc(F)nc32)C[C@@H]1O [Compound 23, (2R,3S,5R)-5-(6-amino-2-fluoro-9H-purin-9-yl)-2-ethynyl-2-(hydroxymethyl) tetrahydrofuran-3-ol]	4.30 to 5.00	4.30 to 5.00	< 6.00	activated production of IFN-β	4.00 to 4.30				
COC(=O)C(C)NP(=O)(OC[C@@H]1C=C[C@H](n2cc(C)c(=O)[nH]c2=O)O1)Oc1ccc(Br)cc1 (stereo partly drawn) [Stampidine, stampidine, reference compound]						6.94	6.99	7.10	7.54
